Source: patent US20240398771A1, “TREATMENT OF SCLERODERMA AND RAYNAUD'S SYNDROME” (Aisa Pharma, Inc., priority 2023, published 2024)

Key:
participants with SSc-RP = assay: Average duration of weekly RP attacks, all attacks (minutes); format: in vivo, human
Description: The relevant metrics measured by this tool daily are: • Study medication • SSc-RP symptoms (Reporting an attack including duration of attack) • Severity of the attack considering all symptoms of the attack e.g. tingling, numbness, pain, color changes (VAS 0-10 cm scale) • Participant's location at the time of the attack (inside home/outside home) • Selecting symptoms experienced during the attack (tingling, numbness, pain, color changes, other) • Pain rating during the attack (11-point Likert scale) • The RCS based on how much difficulty participants had with Raynaud's today, how many attacks the participant had, and how long they lasted. Participants will also be asked to consider how much pain, numbness, or other symptoms the Raynaud's caused in fingers (including painful sores), and how much the Raynaud's alone affected the use of hands today (VAS 0-10 cm scale).
The absolute change in average duration of weekly RP attacks from baseline to the end of each dosing period was and will be a secondary outcome variable. The sponsor-developed participant-informed diary was and will be used to record data. Average duration of weekly RP attacks is defined as the total duration of RP attacks divided by total number of RP attacks within the last 7 days of each dosing period. Total duration of RP attacks during the last 7 days of screening period divided by the total number of RP attacks will be used as baseline for the analysis of all periods. The variable will be calculated similar to frequency data as before.

[1] = 10 mg, single oral dose, healthy volunteers; cited from earlier work
[2] = ITT Population - Part A (Table B-5), last 7 days of dosing period, listed as Cilnidipine 10 mg
[3] = ITT Population - Part A (Table B-5), last 7 days of dosing period, listed as Cilnidipine 20 mg
[4] = ITT Population - Part A (Table B-5), last 7 days of dosing period, listed as Pooled Cilnidipine
[5] = ITT Population - Part A (Table B-5), last 7 days of screening period, listed as Cilnidipine 10 mg
[6] = ITT Population - Part A (Table B-5), last 7 days of screening period, listed as Cilnidipine 20 mg
[7] = ITT Population - Part A (Table B-5), last 7 days of screening period, listed as Pooled Cilnidipine

COCCOC(=O)C1=C(C)NC(C)=C(C(=O)OC/C=C/c2ccccc2)C1c1cccc([N+](=O)[O-])c1 (stereo not drawn) [Cilnidipine, 1,4-dihydro-2,6-dimethyl,4-(3-nitrophenyl)-3,5-pyridinedicarboxylic acid 2-methoxyethyl (2 E)-3-phenyl-2-propenyl ester]
Average duration of weekly RP attacks (All Attacks), Baseline, Q3 (participants with SSc-RP; Excluding Outliers, ITT Population - Part A (Table B-6), last 7 days of screening period, listed as Pooled Cilnidipine): 40.00 min | Average Duration of weekly RP attacks (All Attacks), Max (participants with SSc-RP; [2]): 31.5, 31.5 minutes | Average Duration of weekly RP attacks (All Attacks), Min (participants with SSc-RP; [2]): 31.5, 31.5 minutes | Average duration of weekly RP attacks (All Attacks), Change from Baseline, Max (participants with SSc-RP; [2]): −8.5, −8.5 minutes | Average duration of weekly RP attacks (All Attacks), Change from Baseline, Min (participants with SSc-RP; [2]): −8.5, −8.5 minutes | Average Duration of weekly RP attacks (All Attacks) (participants with SSc-RP; [3]): 3.0 min | Average Duration of weekly RP attacks (All Attacks), Max (participants with SSc-RP; [3]): 30.5 min | Average Duration of weekly RP attacks (All Attacks), Q1 (participants with SSc-RP; [3]): 3.00 min | Average duration of weekly RP attacks (All Attacks), Change from Baseline (participants with SSc-RP; [3]): -7.6 min | Average duration of weekly RP attacks (All Attacks), Change from Baseline, Max (participants with SSc-RP; [3]): 5.5 min | Average duration of weekly RP attacks (All Attacks), Change from Baseline, Q3 (participants with SSc-RP; [3]): 5.45 min | Average duration of weekly RP attacks (All Attacks), Percent Change from Baseline, Max (participants with SSc-RP; [3]): 21.8% | Average duration of weekly RP attacks (All Attacks), Percent Change from Baseline, Min (participants with SSc-RP; [3]): −71.8% | Average duration of weekly RP attacks (All Attacks), Percent Change from Baseline, Q1 (participants with SSc-RP; [3]): −71.76% | Average duration of weekly RP attacks (All Attacks), Percent Change from Baseline, Q3 (participants with SSc-RP; [3]): 21.82% | Average Duration of weekly RP attacks (All Attacks) (participants with SSc-RP; [4]): 3.0 min | Average Duration of weekly RP attacks (All Attacks), Max (participants with SSc-RP; [4]): 31.5 min | Average Duration of weekly RP attacks (All Attacks), Q1 (participants with SSc-RP; [4]): 3.00 min | Average duration of weekly RP attacks (All Attacks), Change from Baseline (participants with SSc-RP; [4]): -8.5 min | Average duration of weekly RP attacks (All Attacks), Change from Baseline, Max (participants with SSc-RP; [4]): 5.5 min | Average duration of weekly RP attacks (All Attacks), Change from Baseline, Median (participants with SSc-RP; [4]): -7.63 min | Average duration of weekly RP attacks (All Attacks), Change from Baseline, Q1 (participants with SSc-RP; [4]): -8.48 min | Average duration of weekly RP attacks (All Attacks), Change from Baseline, Q3 (participants with SSc-RP; [4]): 5.45 min | Average duration of weekly RP attacks (All Attacks), Percent Change from Baseline, Max (participants with SSc-RP; [4]): 21.8% | Average duration of weekly RP attacks (All Attacks), Percent Change from Baseline, Min (participants with SSc-RP; [4]): −71.8% | Average duration of weekly RP attacks (All Attacks), Percent Change from Baseline, Q1 (participants with SSc-RP; [4]): −71.76% | Average duration of weekly RP attacks (All Attacks), Percent Change from Baseline, Q3 (participants with SSc-RP; [4]): 21.82% | Average duration of weekly RP attacks (All Attacks), Baseline, Max (participants with SSc-RP; [5]): 40.0, 40.0 minutes | Average duration of weekly RP attacks (All Attacks), Baseline, Min (participants with SSc-RP; [5]): 40.0, 40.0 minutes | Average duration of weekly RP attacks (All Attacks), Baseline, Q1 (participants with SSc-RP; [5]): 40.00, 40.00 minutes | Average duration of weekly RP attacks (All Attacks), Baseline, Q3 (participants with SSc-RP; [5]): 40.00, 40.00 minutes | Average duration of weekly RP attacks (All Attacks), Baseline (participants with SSc-RP; [6]): 10.6 min | Average duration of weekly RP attacks (All Attacks), Baseline, Max (participants with SSc-RP; [6]): 25.0 min | Average duration of weekly RP attacks (All Attacks), Baseline, Q1 (participants with SSc-RP; [6]): 10.63 min | Average duration of weekly RP attacks (All Attacks), Baseline, Q3 (participants with SSc-RP; [6]): 25.00 min | Average duration of weekly RP attacks (All Attacks), Baseline (participants with SSc-RP; [7]): 10.6 min | Average duration of weekly RP attacks (All Attacks), Baseline, Max (participants with SSc-RP; [7]): 40.0 min | Average duration of weekly RP attacks (All Attacks), Baseline, Mean (participants with SSc-RP; [7]): 25.21 min | Average duration of weekly RP attacks (All Attacks), Baseline, Median (participants with SSc-RP; [7]): 25.00 min | Average duration of weekly RP attacks (All Attacks), Baseline, Q1 (participants with SSc-RP; [7]): 10.63 min | Average duration of weekly RP attacks (All Attacks), Baseline, Q3 (participants with SSc-RP; [7]): 40.00 min | CL/F, Mean [1]: 304.7 L/h
